For data set [1], the system named is Saccharomyces cervisiae. The data set can be described thus: Yeast growth inhibition assay. It counts as cell-based. The settings on record: FIG. 14. As to the method:
Some of the inventive compounds are effective for inhibiting yeast cell growth. This effect can be assayed by measuring growth of the yeast strain Saccharomyces cervisiae. A control yeast stain Saccharomyces cervisiae (BIO 101, Inc.) is grown overnight in YEPD broth at 30° C. A one to hundred dilution of the yeast culture is made with fresh YEPD broth. 100 μl Aliquots of the diluted culture are distributed into 96-wells titer plates. 100 μl Aliquots of drug is diluted in YEPD broth were then added to the wells. The titer plates are incubated at room temperature with continuous shaking. The cell density of the individual cultures are determined using a microplate reader with a A630 filter. The A630 of the individual yeast cultures are compared to control samples without adding drug. This assay is predictive of direct antimicrobial, particularly yeast and fungal, activity of the drugs studied.
This example illustrates the effects of CT2501R (a reference compound), CT2536R, CT2536S, CT1596R, and CT1596S of yeast growth (Saccromyces cerevasie) in the presence or absence of drug. These assays measure anti-yeast and anti-fungal activity of the drugs tested. […] Therefore either the R enantiomer, the S enantiomer or a racemic mixture of CT2536 are potential topical or systemic antimicrobial drugs.

Data set [2] concerns CMV promoter activity in transformed (adenovirus) cells. The data set can be described thus: CMV promoter assay (gene transcription and translation; cytotoxicity in transformed cells). It counts as cell-based. The source says:
FIG. 18 illustrates data regarding proliferative activity of various inventive compounds for inducting CMV promoter activity. The CMV promoter assay measures gene transcription and translation activity wherein any active compounds will have cytotoxic activity to inhibit cellular protein synthesis machinery in transformed (adenovirus) cells.
This example illustrates data regarding proliferative activity of various inventive compounds for inducting CMV promoter activity. The CMV promoter assay measures gene transcription and translation activity wherein any active compounds will have cytotoxic activity to inhibit cellular protein synthesis machinery in transformed (adenovirus) cells.

For data set [3], the system named is mast cell degranulation. The data set can be described thus: Serotonin release assay (inhibition of mast cell degranulation). In kind it is cell-based. To be noted: 50 μM; for RELEASE-SPONT / AVERAGE % RELEASE / inhibition at 50 µM: Table 4; for RELEASE-SPONT: average corrected for spontaneous release; for AVERAGE % RELEASE: average of duplicates; for inhibition at 50 µM: Mast cell. The source says:
A serotonin release assay is utilized to study the utility of the inventive compounds for treatment of asthma and allergy. […] This assay measures mast cell degranulation, which is an early phase reaction to allergen challenge. Mast cells grown in tissue culture are first loaded with ^3 H serotonin, which is incorporated into the granules in the cells. The mast cells are sensitized with antigen specific monoclonal IgE, and then triggered to degranulate with the specific antigen (dinitorphenolbound to BSA (DNP)). When the cells degranulate, ^3 H Serotonin is released into the medium, and can be measured directly. The ability of the inventive compounds to inhibit the degranulation response is determined by the decrease in ^3 H Serotonin released in the presence of drug and is represented as % INHIBITION.
Specifically, the serotonin release assay seeds 2×10^5 cells in 0.5 ml medium in duplicate for spontaneous release, IgE+DNP, IgE+DNP+EtOH (vehicle control), and inventive compounds. […] The cells are incubated for 18 hours at 37° C. in 5% CO2, washed twice with 0.5 ml Isotonic Buffer (25 mM disodium PIPES pH 7.1,100 mM NaCl, 5 mM KCl, 5 mM glucose, 0.4 mM MgCl2, 1mM CaCl2, 0.1% BSA), and sterile filtered. 250 μl Isotonic Buffer is added per well and the plates are equilibrated in an incubator for about 10 min. Drug is added and cells are activated with 40 ng/ml DNP-BSA (1 mg/ml Diluted 1:200 in Isotonic Buffer) for 45 minutes using 2 μl/250 μl. Spontaneous release is determined in incubated cells with 250 μl Isotonic Buffer for 45 minutes and the reaction is stopped by removing supernatant and centrifuging at ~4000 rpm in microfuge for 15 seconds to remove any detached cells. Released radiolableled serotonin is counted. To determine amount of ^3 H-serotonin incorporated into the cells, (a) remove Isotonic Buffer and lyse cells by adding 250 μl 1% Triton-X100 in PBS, (b) add to 5 ml scintillation fluid, (c) wash 2× with Triton/PBS, and (d) add washes to scintillation tube. Percent serotonin release is calculated by dividing the amount of released serotonin by the sum of incorporated plus released serotonin and correcting for spontaneous released serotonin. Compound inhibition is calculated by dividing the percent serotonin release in the presence of a compound by the percent serotonin release in the absence of the compound.
This assay is described above and provides an in vitro model for an allergy and asthma therapeutic product.

In data set [4] the test system is murine thymocyte. The data set can be described thus: Murine thymocyte stimulated by ConA and IL-2 (T cell immune suppression). In kind it is cell-based. The settings on record: FIGS. 8 and 9. The protocol: A thymocyte costimulator assay is conducted to evaluate the inventive compounds to inhibit activation and proliferation of thymocytes caused by stimulation with Con A and interleukin-1 (IL-1), or […]. Thymuses are obtained from mice (e.g., female Balb/C mice) and the thymuses are removed and dissociated into culture media (e.g., RPMI 1640 without serum supplementation). The dissociated thymus tissue and cell suspension is transferred to centrifuge tubes and allowed to settle, washed with HBSS and resuspended in serum-supplemented culture media (e.g., RPMI 1640 with 10% fetal calf serum). Any contaminating red cells are lysed, and viable cells are resuspended and counted. Thymocytes are plated (e.g., 96-well plates at a density of 2×10^5 cells/well) and a stimulating agent, such as Con A, IL-1 (e.g., IL-1α) or IL-2 is added to the well. The cells are incubated for 4 days at 37° C. On the fourth day, the cells are pulsed with tritiated thymidine and cell proliferation determined. Inventive compounds are added at the time of stimulating agent addition.
A third assay measures an ability of an inventive compound to inhibit IL-2-induced proliferation of murine thymocytes. Thymus glands are obtained from 4-6 week old mice and plated as a single cell suspension into flat bottomed wells in RPMI 1640 medium supplemented with 10% fetal calf serum. The inventive compounds are added to appropriate wells and the cells are incubated for 1-2 hrs. Concanavilin A (ConA, 0.25 mg/ml) and […] (20 ng/ml) are added and the plates are incubated for 4 days. Cell proliferation is determined as above.
FIG. 8 compares T cell immune suppression data of thirteen inventive compounds by comparing their IC50 values in a murine thymocyte stimulated by ConA and IL-2 in vitro model.

The subject of data set [5] is human lymphocytes. The data set can be described thus: IL-2 induced blastogenesis assay. In kind it is cell-based. The settings on record: human IL-2, six days; FIG. 12. The protocol: (§1) Briefly, human lymphocytes are obtained from blood from normal volunteers and plated into wells at 2×10^5 cells/well. Human IL-2 ([…] or 5 μl of a 100 U/ml solution) and drug at various concentrations are added to each well. The cells are incubated for six days and then proliferation is determined by a standard tritiated thymidine incorporation procedure. […] However, both CT1406 and CT1442 were active, as is shown by IC50 values in FIG. 12.
as §1, with “This example illustrates the effects of four inventive compounds to inhibit proliferation of human lymphocytes in an IL-2 induced blastogenesis in vitro assay. […] Briefly,” for “Briefly,”, “cells am” for “cells are”

Data set [6] relates to PBMC (peripheral blood mononuclear cells). The data set can be described thus: Two-way mixed lymphocyte reaction (MLR), proliferation of PBMC to allogeneic stimulation. It counts as cell-based, human. To be noted: for mixed lymphocyte reaction activity: FIGS. 1 and 2. An excerpt: Various in vitro assays can be used to measure effects of the inventive compounds to module immune activity and have antitumor activity using a variety of cellular types. For example, a mixed lymphocyte reaction (MLR) provides a valuable screening tool to determine biological activity of each inventive compound. In the MLR, PBMCs (peripheral blood mononuclear cells) are obtained by drawing whole blood from healthy volunteers in a heparinized container and diluted with an equal volume of hanks balanced salt solution (HBSS). This mixture is layered on a […] density gradient, such as a Ficoll-Hypaque® gradient (specific gravity 1.08), and centrifuged at 1000×g for 25 minutes at room temperature or cooler. PBMC are obtained from a band at a plasma-Ficoll interface, separated and washed at least twice in a saline solution, such as HBSS. Contaminating red cells are lysed, such as by ACK lysis for 10 min at 37° C., and the PBMCs are washed twice in HBSS. The pellet of purified PBMCs is resuspended in complete medium, such as RPMI 1640 plus 20% human inactivated serum. Proliferative response of PBMC to allogeneic stimulation is determined in a two-way MLR performed in a 96-well microliter plate. Briefly, approximately 10^5 test purified PBMC cells in […] complete medium are co-cultured with approximately 10^5 autologous (control culture) or allogeneic (stimulated culture) PBMC cells, wherein the allogeneic cells are from HLA disparate individuals. Varying doses of compounds (drug) are added at the time of addition of cells to the microtiter plate. The cultures are incubated for 6 days at 37° C. in a 5% CO2 atmosphere. At the conclusion of the incubation tritiated thymidine is added (for example, […] of 40 to 60 Ci/mmole) and proliferation determined by liquid scintillation counting.
This example illustrates a mixed lymphocyte reaction assay of inventive compounds by showing the IC50 value of each compound in this assay and a dose response of several compounds to illustrate an IC50 determination.

In data set [7] the test system is PBMC in mixed lymphocyte assay culture. The data set can be described thus: Percent viable cells in mixed lymphocyte assay culture after six days. It counts as cell-based, human. To be noted: for cytotoxicity in mixed lymphocyte assay culture: 100 μM, six days of culture.
The subject of data set [8] is human lymphocytes. The data set can be described thus: CD3 blastogenesis assay. The settings on record: IL-2 or CD3 blastogenesis; FIG. 13. In kind it is cell-based. As to the method: The CD3 blastogenesis assay is virtually identical to the IL-2 blastogenesis assay described herein, except a human anti-CD3 monoclonal antibody (4 μg/ml, Boehinger Manheimm) is used instead of human IL-2 and the cells are incubated for only three days.
This example illustrates various IC50 values of five inventive compounds as determined by an IL-2 blastogenesis assay described in example 44 above or a CD3 blastogenesis assay. The CD3 blastogenesis assay is virtually identical to the IL-2 blastogenesis assay described herein, except a human anti-CD3 monoclonal antibody (4 μg/ml, Boehinger Manheimm) is used instead of human IL-2 and the cells are incubated for only three days.

As a reminder, the IC50 is the midpoint of a concentration-inhibition curve. Usually inhibition stands for the relative decrease from the control value, in per cent.

Consider `CC(C)=CCC[C@H](C)CCCn1c(=O)c2c(ncn2C)n(C)c1=O` [CT2536S, 1-(4-(S)-Methyl-8-methylnon-7-enyl)-3,7-dimethylxanthine], for which the “inhibition of yeast growth” value in data set [1] is listed as “strongly inhibited yeast growth”. This molecule returned an IC50 in data set [2] of 30 µM. Further, in data set [3], the RELEASE-SPONT was found to be 0.21%, the “AVERAGE % RELEASE” value amounted to 16.76% and the inhibition at 50 µM amounted to 97.4%.

`CC(C)=CCCC(C)CCn1c(=O)c2c(ncn2C)n(C)c1=O` (racemic) [CT1596]: the “inhibition of yeast growth” value in data set [1] is listed as “enantiomeric selectivity”.

For `CC/C=C\CCCCCn1c(=O)c2[nH]cnc2n(C)c1=O` [CT1442, 1-(6-cis-nonenyl)-3-methylxanthine], in data set [4], the “T cell immune suppressing activity” value is given as “potent immune suppressing activity”. Also, the “activity in IL-2 blastogenesis assay” value in data set [5] is “active”. For the same molecule, in data set [3], the “activity in serotonin release assay” value is reported as “increases the activity”, the RELEASE-SPONT was 2.94%, the “AVERAGE % RELEASE” value is on record as 19.49% and the inhibition at 50 µM came to 63.4%. The “mixed lymphocyte reaction activity” value in data set [6] was “the most potent activity”. In addition, the “cytotoxicity in mixed lymphocyte assay culture” value in data set [7] is given as “little or no cytotoxicity at concentrations well above its effective concentrations”.

With `C=CCCCCCCCCCn1c(=O)c2[nH]cnc2n(C)c1=O` [CT1406, 1-(10-undecenyl)-3-methylxanthine], in data set [2], the IC50 stood at 60 µM. For the same molecule, the “activity in IL-2 blastogenesis assay” value in data set [5] is given as “active”. Besides, in data set [3], the RELEASE-SPONT was determined as 3.26%, the “AVERAGE % RELEASE” value amounted to 19.81% and the inhibition at 50 µM was 59.4%. The “mixed lymphocyte reaction activity” value in data set [6] is reported as “the most potent activity”. In data set [6] (Homo sapiens, PBMC, FIGS. 3 and 4), this molecule registered an IC50 of 20 µM. Also, the “cytotoxicity in mixed lymphocyte assay culture” value in data set [7] is given as “the most cytotoxic at 100 μM”. Also, in data set [7] (cytotoxicity at 100 μM vs MLR IC50), the “therapeutic window” value is “significant therapeutic window”.

As for Cyclosporin A [reference compound], the “immune suppressing activity in blastogenesis assays” value in data set [8] was “generally not very active”. For the same molecule, the “activity in IL-2 blastogenesis assay” value in data set [5] is “does not show significant activity”.

Turning to `CC(C)=CCC[C@@H](C)CCCn1c(=O)c2c(ncn2C)n(C)c1=O` [CT2536R, 1-(4-(R)-Methyl-8-methylnon-7-enyl)-3,7-dimethylxanthine], in data set [1], the “inhibition of yeast growth” value is given as “strongly inhibited yeast growth”. For the same molecule, the IC50 in data set [2] was 30 µM. Further, in data set [3], the RELEASE-SPONT is -0.55%, the “AVERAGE % RELEASE” value was 16.00% and the inhibition at 50 µM was 107%.

These data come from patent US5521315A, “Olefin substituted long chain compounds” (priority 1993, dated 1996).
